Data on 20 compounds can be found in ChEMBL document CHEMBL1130959, “Synthesis and effects of novel thiazole derivatives against thrombocytopenia” (1998).

Common to all, as to assay type: functional
Common to all, as to conditions: route oral

The subject of experiment [1] is Mus musculus. The experiment is described as follows: Percentage of the number of platelets for the treated versus mitomycin C(MMC) control group in the MMC-induced thrombocytopenic mice at a dose of 32 mg/kg following peroral administration.
For experiment [2], the system named is Mus musculus. The experiment can be described thus: Percentage of the number of platelets for the treated versus mitomycin C(MMC) control group in the MMC-induced thrombocytopenic mice at a dose of 100 mg/kg following peroral administration.
Experiment [3] relates to Mus musculus. The experiment is described as follows: Percentage of the number of platelets for the treated versus mitomycin C(MMC) control group in the MMC-induced thrombocytopenic mice at a dose of 10 mg/kg following peroral administration.

The compound `Nc1ncc([S+]([O-])c2cccnc2)s1` (configuration not stated) showed a No. of platelets in experiment [1] of 115%.

In the case of `Nc1ncc([S+]([O-])c2ccc3ccccc3n2)s1` (configuration not stated), the No. of platelets in experiment [2] is recorded as 181%; in experiment [1], 153%; in experiment [3], 138%.

Consider `Nc1ncc([S+]([O-])c2ccc3cccnc3n2)s1` (configuration not stated), for which, in experiment [1], the No. of platelets was 130%.

`Nc1ncc(Sc2ccccn2)s1` registered a No. of platelets in experiment [2] of 147%.

As to `Cc1nc(N)sc1[S+]([O-])c1ccccn1` (configuration not stated), in experiment [2], the No. of platelets is reported as 118%.

Compound `Cc1ccc2nc([S+]([O-])c3cnc(N)s3)ccc2c1` (configuration not stated) yielded a No. of platelets in experiment [2] of 146%.

Consider `Nc1ccc(S(=O)(=O)c2ccc(N)cc2)cc1` [DAPSONE], for which the No. of platelets is 150% in experiment [2], 125% in experiment [1] and 91% in experiment [3].

`Nc1ncc([S+]([O-])c2ccc3cc(F)ccc3n2)s1` (configuration not stated) registered a No. of platelets in experiment [2] of 162%.

`Nc1ncc([S+]([O-])c2ccccn2)s1` (configuration not stated) came in with a No. of platelets in experiment [1] of 154%.

For the compound `Nc1ncc(S(=O)(=O)c2ccccn2)s1`, the results for the No. of platelets in experiment [2], in experiment [1] and in experiment [3] were 139%, 143% and 94%, respectively.

In turn, `Nc1ncc([S+]([O-])c2ncccn2)s1` (configuration not stated) returned a No. of platelets in experiment [1] of 116%.

Consider `Nc1ncc([S+]([O-])c2cnc3ccccc3n2)s1` (configuration not stated), for which the No. of platelets in experiment [2] came to 131%.

As to `Nc1ncc([S+]([O-])c2cccc3cccnc23)s1` (configuration not stated), the results for the No. of platelets in experiment [2], in experiment [1] and in experiment [3] were 188%, 123% and 116%, respectively.

For `Nc1ncc([S+]([O-])c2nc3ccccc3[nH]2)s1` (configuration not stated), the No. of platelets is reported as 165% in experiment [2], 112% in experiment [1] and 92% in experiment [3].

`Nc1ncc([S+]([O-])c2nccs2)s1` (configuration not stated) gave a No. of platelets in experiment [2] of 146%.

In experiment [2], `CNc1ncc([S+]([O-])c2ccccn2)s1` (configuration not stated) yielded a No. of platelets of 132%.

Take `Nc1ncc(C(=O)c2ccccn2)s1`: the No. of platelets in experiment [2] turned out to be 140%.

In experiment [2], `Nc1nnc([S+]([O-])c2ccc3ccccc3n2)s1` (configuration not stated) displayed a No. of platelets of 102%.

Consider `Nc1ncc([S+]([O-])c2cccs2)s1` (configuration not stated), for which, in experiment [2], the No. of platelets is 138%.

Take `[O-][S+](c1ccccn1)c1cncs1` (configuration not stated): the No. of platelets is on record as 171% in experiment [2], 148% in experiment [1] and 124% in experiment [3].
